# Results taken from US11260003B2, “Antimicrobial composition and cosmetic containing antimicrobial composition” (ADEKA CORPORATION, priority 2017, dated 2022).
# Assays:
# Type in all cases: cell-based
# [1] = test system: Escherichia coli ATCC 8739, Pseudomonas aeruginosa ATCC 9027, Staphylococcus aureus ATCC 6538, Candida albicans ATCC 10231, Aspergillus brasiliensis ATCC 16404; experiment: five-species minimum inhibitory concentration (five-species MIC), microplate turbidity test
# Method: Test solutions containing these microorganisms were prepared as follows: the bacteria were precultured on SCD (soybean casein digest) liquid medium and the yeast and fungus were precultured on glucose agar medium; this was followed in each case by adjustment of the microorganism concentration in the liquids to the level of 10^6 to 10^7 cfu/mL using 0.9% aqueous NaCl solution.
# 20 μL of each test solution was dispensed onto a microplate; 180 μL of each antimicrobial composition—prepared by the dilution with medium of component (B) and component (C) at the prescribed concentrations given in Table 1 and component (A) at various concentrations was added; and stirring was carried out to provide a mixed solution (the test sample). Component (A), component (B), and component (C) were prepared here so as to provide the prescribed concentrations in mass % in the mixed solutions. Each mixed solution was then cultured as follows: 48 hours in a thermostat at 33° C. for the bacterial mixed solutions; 3 days at 25° C. for the yeast mixed solutions; and 1 week at 25° C. for the fungus mixed solutions. The post-culture turbidity of each mixed solution was observed. For each microorganism, the mixed solutions containing component (A) at the various concentrations, and each blending condition for component (B) or component (C) (each of the mixed solutions), those mixed solutions were identified where turbidity or the presence of colonies/filaments was not seen (i.e., mixed solutions where growth of the test microorganism had been stopped). For each of the five microorganisms, the lowest component (A) concentration in the mixed solutions where growth had been stopped was designated the minimum inhibitory concentration. […] In addition, the antimicrobial activity (enhancement effect) was evaluated also using the numerical MIC values given in those instances where a “+” or “−” is provided.
# [2] = test system: Escherichia coli (bacteria) ATCC 8739; experiment: minimum inhibitory concentration (MIC), microplate turbidity test; conditions: mass % of component (A) (A-4 or A-5); 48 hours at 33° C.; component (B)/(C) at 5%
# Method: (§1) E. coli: Escherichia coli (bacteria) ATCC 8739 Test solutions containing these microorganisms were prepared by preculture on SCD liquid medium followed by adjusting the microorganism concentration in the liquids to the level of 10^6 to 10^7 cfu/mL using a 0.9% aqueous NaCl solution. 20 μL of each test solution was dispensed onto a microplate; 180 μL of each antimicrobial composition—prepared by the dilution with medium of component (B) and component (C) at the prescribed concentrations and component (A) at various concentrations—was added; and stirring was carried out to provide a mixed solution (the test sample). Component (A), component (B), and component (C) were prepared here so as to provide the prescribed concentrations in mass % in the mixed solutions. Each mixed solution was then cultured for 48 hours in a thermostat at 33° C., after which the turbidity of each mixed solution was observed. […]
# [3] = test system: Pseudomonas aeruginosa (bacteria) ATCC 9027; experiment: as above; conditions: mass % of component (A) (A-4 or A-5); 48 hours at 33° C.; component (B)/(C) at 5%
# Method: as §1, with “P. aer: Pseudomonas aeruginosa” for “E. coli: Escherichia coli”, “9027” for “8739”
Structure (SMILES),MIC (%) E. coli [2] [%],MIC (%) P. aer [3] [%],further results
"CCCCC(CC)COCC(O)CO (stereo not shown) [Comp. Ex. 1, 2-ethylhexyl glyceryl ether]",,,"five-species MIC (%) ([1]; Table 1, mass % of component (A) A-1 at which growth of all five microorganisms stopped, component (B)/(C) at prescribed %): 1.00+ %"
"CCCCCCCCOCC(O)CO (stereo not shown) [Comp. Ex. 5, octyl glyceryl ether]",,,"five-species MIC (%) ([1]; Table 2, mass % of component (A) A-2 at which growth of all five microorganisms stopped, component (B)/(C) at prescribed %): 0.50+ %"
"OCC(O)COC1CCCCC1 (stereo not shown) [Comp. Ex. 9, cyclohexyl glyceryl ether]",,,"five-species MIC (%) ([1]; Table 3, mass % of component (A) A-3 at which growth of all five microorganisms stopped, component (B) at prescribed %): 3.00%"

# More lines, main results first:
MIC (%) E. coli [2] [%],MIC (%) P. aer [3] [%],Structure (SMILES),further results
0.13,0.38,"CCCCCCC(O)CO (stereo not shown) [Comp. Ex. 10, 1,2-octanediol]",
0.25,0.75,"CCCCCCOCC(O)CO (stereo not shown) [compound 14, hexyl glyceryl ether]",
